Key:
membrane proteins = experiment: Retention of extracted membrane proteins in soluble form in micelles (summary)
Excerpt: The amphiphiles were thus evaluated as membrane protein solubilizers and stabilizers and they compared very favorably with DDM, a standard reagent in the field. Compared to DDM, for example, one of the evaluated amphiphiles forms micelles at one-tenth of the concentration required for DDM. Compared with DDM, GDN performs similarly for extracting membrane proteins from membranes, and stably retains the proteins in a soluble form within the micelles for substantially longer (>3 weeks) than DDM. Such improved stability (without sacrificing extraction efficiency) is a valuable trait for research tool amphiphiles.
The amphiphiles described herein require lower concentrations than many commonly used surfactants to form stable micelles.

[1] = target: T1, melibiose permease (MelB) (Salmonella typhimurium, UniProt P30878); experiment: MelB solubilization and thermostability (SDS-PAGE, immunoblot); conditions: 1.5 wt %; for MelB extraction from membranes at 0° C.: 10 min or 90 min
T1 construct: made in house; host or cells: E. coli DW2-R (ΔmelB, ΔlacZY), vector pK35ΔAHB/WT MelB/CH6
T1 sequence (P30878 whole entry): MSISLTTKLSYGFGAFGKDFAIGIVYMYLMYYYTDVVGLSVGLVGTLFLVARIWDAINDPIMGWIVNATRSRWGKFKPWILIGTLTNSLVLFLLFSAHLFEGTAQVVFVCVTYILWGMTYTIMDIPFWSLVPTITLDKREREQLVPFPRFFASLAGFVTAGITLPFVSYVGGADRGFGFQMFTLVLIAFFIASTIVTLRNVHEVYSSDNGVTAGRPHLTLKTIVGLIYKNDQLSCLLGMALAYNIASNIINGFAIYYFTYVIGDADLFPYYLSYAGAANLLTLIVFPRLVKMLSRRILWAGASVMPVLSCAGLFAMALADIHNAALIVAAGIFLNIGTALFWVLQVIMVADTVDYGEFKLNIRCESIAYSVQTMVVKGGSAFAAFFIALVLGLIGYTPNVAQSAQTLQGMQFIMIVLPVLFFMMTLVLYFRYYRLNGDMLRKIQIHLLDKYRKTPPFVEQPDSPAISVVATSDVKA
Description: DDM (1.5 wt %) or GDN (1.5 wt %) was used to extract MelB from S. typhimurium membranes at 0° C. for 10 min or 90 min and then aggregated material was removed via ultracentrifugation. The amount of MelB in solution was determined by SDS-PAGE with immunoblot detection (FIG. 10).
The effect of DDM and GDN on MelB thermostability was assessed by solubilizing the protein at the elevated temperatures for 90 min. […] Presumably MelB denatured and aggregated at the higher temperature in the presence of DDM. […] When MelB expressed in E. coli was used, similar results were obtained (FIG. 11).
The protocol reported by Chae and coworkers (Nat. Methods 2010, 7, 1003-1008) was used to evaluate MelB stability with DDM and GDN.
The reported protocol3 was used to evaluate MelB stability with DDM and GDN. Vector pK35ΔAHB/WT MelB/CH6 encoding the wild-type MelB with a 6-His tag at the C-terminus and E. coli DW2-R cells (ΔmelB and ΔlacZY) are used for the assay. Cells were harvested, resuspended in a buffer containing 20 mM Tris, pH 7.5, 200 mM NaCl and 10% glycerol. The harvested cells were subjected to French press and centrifugation at 20,000 g for 15 min. Subsequently, membranes were obtained via ultracentrifugation at 43,000 rpm for 3 hr in the Beckman rotor, Type 45 Ti rotor. A protein assay was carried out with a BCA kit (Thermo Scientific, Rockford, Ill.). For the measurement of solubilization efficiency, membrane samples containing MelB were incubated with a solubilization buffer (20 mM Tris, 200 mM NaCl, 10% glycerol, 20 mM melibiose, pH, 7.5) and 1.5 wt % DDM or GDN at 0° C. for 10 min. The final protein concentration was 10 mg/mL. For the MelB thermostability, the samples were incubated for 90 min at the four different temperatures (0, 45, 55, and 65° C.). After ultracentrifugation at 355,590 g in a Beckman Optima™ MAX Ultracentrifuge using a TLA-100 rotor for 45 min at 4° C., 10 μg protein before and after spin for each condition was analyzed by SDS-12% PAGE and immunoblotted with Penta-His-HRP antibody (Qiagen, Germantown, Md.).

[2] = target: T2, CMP-Sia fusion protein bearing green fluorescent protein (GFP) (Mus musculus, UniProt Q61420); experiment: CMP-Sia-GFP fusion solubilization (fluorescence); conditions: 1 hr at 4° C., total fluorescence
T2 construct: made in house; host or cells: Saccharomyces cerevisiae FGY217
Description: The favorable MelB extraction performance of GDN led to the examination of this amphiphile for extraction of other IMPs. […] DDM and GDN were used to extract a CMP-Sia fusion protein bearing green fluorescent protein (GFP) at the C-terminus, after expression in Saccharomyces cerevisiae; the amount of solubilized protein was estimated by total fluorescence. GDN (2 wt %), DDM (1 wt %) and OG (1 wt %) gave ˜70%, ˜80% and ˜50% extraction yields, respectively.
The procedure was performed according to the protocol reported by Chae and coworkers (Nat. Methods 2010, 7, 1003-1008).
CMP-Sia was expressed as a fusion protein with a C-terminal GFP in FGY217 Saccharomyces cerevisiae cells. Cell lysis was conducted by using a cell disrupter (Constant Systems) and the protein samples were subjected to centrifugation at 15,000 g for 10 mins to remove unbroken cells and debris. Subsequently, the membranes were harvested by ultracentrifugation at 150,000 g for 45 min. The membranes were resuspended in 50 mM Tris-HCl (pH 7.6), 1 mM EDTA, 0.6 M sorbitol and the protein concentration was estimated using a BCA kit (Pierce). The membranes were incubated with OG or DDM at 1.0%, or GDN at 2.0% for 1 hr at 4° C. A fluorescence value was measured for each sample before and after ultracentrifugation at 150,000 g for 1 h. The solubilization efficiency was calculated via the fluorescence measurements of the soluble supernatant/the total sample.

[3] = system: R. capsulatus LHI-RC superassembly; experiment: R. capsulatus LHI-RC superassembly stability (A875/A680); design: species or system Rhodobacter capsulatus; conditions: CMC+0.04 wt %, RT, 875 nm/680 nm absorbance ratio
Description: Next a more challenging system, the photosynthetic superassembly from Rhodobacter capsulatus (Laible et al., Biochemistry 2003, 42, 1718-1730), was analyzed. This photosynthetic superassembly contains the light harvesting I (LHI) complex and the reaction center (RC) complex. The superassembly contains >30 protein molecules; integrity can be assessed based on the 875 nm/680 nm absorbance ratio (Chae et al., ChemBioChem 2008, 9, 1706-1709). The superassembly was extracted from the native membrane with 1.0 wt % DDM and purified with DDM at its CMC (0.009 wt %). […]
The stability of R. capsulatus superassembly was assessed according to the protocol described by Chae and coworkers (J. Am. Chem. Soc. 2010, 132, 16750-16752).
For the stability assay, DDM-solubilized material was transferred into a new microcentrifuge tube containing Ni-NTA resin (Qiagen, Inc.; Valencia, Calif.; pre-equilibrated and stored in an equal volume of buffer containing 10 mM Tris, pH 7.8, and 100 mM NaCl). After a 1 h incubation at 4° C. for binding, the resins were washed twice with 0.5 mL of binding buffer (a pH 7.8 Tris solution containing DDM at 1×CMC) and eluted three times with 0.20 mL elution buffer aliquots containing 1 M imidazole (otherwise, this buffer was identical to binding buffer; the pH of each solution was readjusted to pH=7.8). […]

Row | Structure (SMILES) | Time until stabilized protein activity began to decay (membrane proteins) | MelB extraction from membranes at 0° C. [1] | Soluble MelB at 45° C. ([1]; 90 min, 45° C.) | Soluble MelB at 55° C. ([1]; 90 min) | CMP-Sia-GFP extraction yield ([2]; 1 wt %) | LHI-RC superassembly stability over 20 days relative to DDM or OG [3] | Time proteins are stably retained in soluble form within the micelles (membrane proteins) | Soluble MelB at 65° C. ([1]; 90 min, 65° C.) | CMP-Sia-GFP extraction yield ([2]; 2 wt %)
1 | CCCCCCCCCCCCO[C@@H]1O[C@H](CO)[C@@H](O[C@H]2O[C@H](CO)[C@@H](O)[C@H](O)[C@H]2O)[C@H](O)[C@H]1O [DDM, dodecyl-β-D-maltoside, reference compound] | a few hours or a few days | quantitatively extract | high yield of soluble MelB | no soluble protein was obtained | ~80% | – | – | – | –
2 | C[C@@H]1CC[C@@]2(OC1)O[C@H]1C[C@H]3[C@@H]4CC=C5C[C@@H](OCCC(CO[C@@H]6OC(CO)[C@@H](O[C@H]7OC(CO)[C@@H](O)C(O)C7O)C(O)C6O)CO[C@@H]6OC(CO)[C@@H](O[C@H]7OC(CO)[C@@H](O)C(O)C7O)C(O)C6O)CC[C@]5(C)[C@H]4CC[C@]3(C)[C@@H]1[C@@H]2C (stereo partly drawn) [GDN, glyco-diosgenin] | – | not quite as efficient in extraction | – | large amounts of soluble protein | – | substantially more stable | > 3 weeks | large amounts of soluble protein | ~70%
3 | CO[C@@H]1CC[C@@]2(C)[C@H](CC[C@@H]3[C@@H]2CC[C@]2(C)[C@@H]([C@H](C)CCCOCC(C)(CO[C@@H]4OC(CO)C(O[C@@H]5OC(CO)[C@@H](O)[C@H](O)C5O)[C@@H](O)C4O)CO[C@@H]4OC(CO)[C@@H](O[C@H]5OC(CO)[C@@H](O)[C@H](O)C5O)[C@H](O)C4O)CC[C@@H]32)C1 (stereo partly drawn) [GLC-2] | – | – | – | – | – | substantially more stable | – | – | –

— patent US9556217B2, “Amphiphilic compounds” (WISCONSIN ALUMNI RESEARCH FOUNDATION, priority 2012, dated 2017)
